Experimental data taken from PubChem BioAssay (NCI).
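Abbreviation: GI50, concentration required for 50% inhibition of growth. At the TGI there is no net growth.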

Assays:
Experiment in all cases: DTP human tumour cell line panel, 384-well format
CAKI-1 renal = system: CAKI-1 renal
OVCAR-8 ovarian = system: OVCAR-8 ovarian
CCRF-CEM leukemia = system: CCRF-CEM leukemia
MDA-MB-468 breast = system: MDA-MB-468 breast
MDA-MB-231 breast = system: MDA-MB-231 breast
OVCAR-3 ovarian = system: OVCAR-3 ovarian
NCI-H226 lung = system: NCI-H226 lung
MOLT-4 leukemia = system: MOLT-4 leukemia
MCF7 breast = system: MCF7 breast
KM12 colon = system: KM12 colon
RXF 393 renal = system: RXF 393 renal
NCI/ADR-RES ovarian = system: NCI/ADR-RES ovarian
DU-145 prostate = system: DU-145 prostate
UACC-62 melanoma = system: UACC-62 melanoma
HCT-15 colon = system: HCT-15 colon
T-47D breast = system: T-47D breast
EKVX NSCLC = system: EKVX NSCLC
SK-OV-3 ovarian = system: SK-OV-3 ovarian
U251 glioblastoma = system: U251 glioblastoma
PC-3 prostate = system: PC-3 prostate
M14 melanoma = system: M14 melanoma
HS 578T breast = system: HS 578T breast
SNB-19 CNS = system: SNB-19 CNS
NCI-H460 NSCLC = system: NCI-H460 NSCLC
NCI-H322M lung = system: NCI-H322M lung
UACC-257 melanoma = system: UACC-257 melanoma
SF-268 CNS = system: SF-268 CNS
COLO 205 colon = system: COLO 205 colon
HOP-92 NSCLC = system: HOP-92 NSCLC
ACHN renal = system: ACHN renal
SK-MEL-2 melanoma = system: SK-MEL-2 melanoma
IGROV1 ovarian = system: IGROV1 ovarian
TK-10 renal = system: TK-10 renal
BT-549 breast = system: BT-549 breast
SK-MEL-5 melanoma = system: SK-MEL-5 melanoma
SF-539 CNS = system: SF-539 CNS
RPMI-8226 leukemia = system: RPMI-8226 leukemia
OVCAR-4 ovarian = system: OVCAR-4 ovarian
SR leukemia = system: SR leukemia
SN12C renal = system: SN12C renal
A498 renal = system: A498 renal
HL-60(TB) leukemia = system: HL-60(TB) leukemia
OVCAR-5 ovarian = system: OVCAR-5 ovarian
HCC-2998 colon = system: HCC-2998 colon
HOP-62 NSCLC = system: HOP-62 NSCLC
HT29 colon = system: HT29 colon
MDA-MB-435 melanoma = system: MDA-MB-435 melanoma
SW-620 colon = system: SW-620 colon
NCI-H522 lung = system: NCI-H522 lung
SK-MEL-28 melanoma = system: SK-MEL-28 melanoma
MALME-3M melanoma = system: MALME-3M melanoma
NCI-H23 lung = system: NCI-H23 lung
SNB-75 CNS = system: SNB-75 CNS

`COc1ccc(N(C)c2nc(C)nc3ccccc23)cc1` was tested, and the GI50 (CAKI-1 renal) was under 10 nM, the TGI (CAKI-1 renal) was 288 nM and the GI50 (OVCAR-8 ovarian) was under 10 nM. The TGI (OVCAR-8 ovarian) was under 10 nM, the GI50 (CCRF-CEM leukemia) was under 10 nM and the TGI (CCRF-CEM leukemia) was under 10 nM. It also gave a GI50 (MDA-MB-468 breast) of under 10 nM, a TGI (MDA-MB-468 breast) of under 10 nM and a GI50 (MDA-MB-231 breast) of under 10 nM. The TGI (MDA-MB-231 breast) was 23900 nM, the GI50 (OVCAR-3 ovarian) was under 10 nM and the TGI (OVCAR-3 ovarian) was under 10 nM. It also gave a GI50 (NCI-H226 lung) of under 10 nM, a TGI (NCI-H226 lung) of under 10 nM and a GI50 (MOLT-4 leukemia) of under 10 nM. For the same molecule, the TGI (MOLT-4 leukemia) was under 10 nM, the GI50 (MCF7 breast) was under 10 nM and the TGI (MCF7 breast) was 184 nM. For the same molecule, the GI50 (KM12 colon) was under 10 nM, the TGI (KM12 colon) was 38400 nM and the GI50 (RXF 393 renal) was under 10 nM. For the same molecule, the TGI (RXF 393 renal) was under 10 nM, the GI50 (NCI/ADR-RES ovarian) was under 10 nM and the TGI (NCI/ADR-RES ovarian) was under 10 nM. For the same molecule, the GI50 (DU-145 prostate) was under 10 nM, the TGI (DU-145 prostate) was 32.8 nM and the GI50 (UACC-62 melanoma) was under 10 nM. The TGI (UACC-62 melanoma) was under 10 nM, the GI50 (HCT-15 colon) was under 10 nM and the TGI (HCT-15 colon) was under 10 nM. For the same molecule, the GI50 (T-47D breast) was under 10 nM, the TGI (T-47D breast) was 55700 nM and the GI50 (EKVX NSCLC) was under 10 nM. For the same molecule, the TGI (EKVX NSCLC) was 25100 nM, the GI50 (SK-OV-3 ovarian) was under 10 nM and the TGI (SK-OV-3 ovarian) was under 10 nM. For the same molecule, the GI50 (U251 glioblastoma) was under 10 nM, the TGI (U251 glioblastoma) was under 10 nM and the GI50 (PC-3 prostate) was under 10 nM. It also gave a TGI (PC-3 prostate) of under 10 nM, a GI50 (M14 melanoma) of under 10 nM and a TGI (M14 melanoma) of under 10 nM. For the same molecule, the GI50 (HS 578T breast) was under 10 nM, the TGI (HS 578T breast) was under 10 nM and the GI50 (SNB-19 CNS) was under 10 nM. The TGI (SNB-19 CNS) was under 10 nM, the GI50 (NCI-H460 NSCLC) was under 10 nM and the TGI (NCI-H460 NSCLC) was under 10 nM. It also gave a GI50 (NCI-H322M lung) of under 10 nM, a TGI (NCI-H322M lung) of over 100000 nM and a GI50 (UACC-257 melanoma) of under 10 nM. For the same molecule, the TGI (UACC-257 melanoma) was 75500 nM, the GI50 (SF-268 CNS) was under 10 nM and the TGI (SF-268 CNS) was under 10 nM. The GI50 (COLO 205 colon) was under 10 nM, the TGI (COLO 205 colon) was under 10 nM and the GI50 (HOP-92 NSCLC) was under 10 nM. It also gave a TGI (HOP-92 NSCLC) of 13.1 nM, a GI50 (ACHN renal) of under 10 nM and a TGI (ACHN renal) of 11400 nM. For the same molecule, the GI50 (SK-MEL-2 melanoma) was under 10 nM, the TGI (SK-MEL-2 melanoma) was under 10 nM and the GI50 (IGROV1 ovarian) was under 10 nM. It also gave a TGI (IGROV1 ovarian) of over 100000 nM, a GI50 (TK-10 renal) of under 10 nM and a TGI (TK-10 renal) of 90300 nM. For the same molecule, the GI50 (BT-549 breast) was under 10 nM, the TGI (BT-549 breast) was under 10 nM and the GI50 (SK-MEL-5 melanoma) was under 10 nM. The TGI (SK-MEL-5 melanoma) was under 10 nM, the GI50 (SF-539 CNS) was under 10 nM and the TGI (SF-539 CNS) was under 10 nM. It also gave a GI50 (RPMI-8226 leukemia) of under 10 nM, a TGI (RPMI-8226 leukemia) of under 10 nM and a GI50 (OVCAR-4 ovarian) of under 10 nM. For the same molecule, the TGI (OVCAR-4 ovarian) was 2080 nM, the GI50 (SR leukemia) was under 10 nM and the TGI (SR leukemia) was under 10 nM. For the same molecule, the GI50 (SN12C renal) was under 10 nM, the TGI (SN12C renal) was 46000 nM and the GI50 (A498 renal) was under 10 nM. For the same molecule, the TGI (A498 renal) was 35400 nM, the GI50 (HL-60(TB) leukemia) was under 10 nM and the TGI (HL-60(TB) leukemia) was under 10 nM. It also gave a GI50 (OVCAR-5 ovarian) of under 10 nM, a TGI (OVCAR-5 ovarian) of over 100000 nM and a GI50 (HCC-2998 colon) of under 10 nM. The TGI (HCC-2998 colon) was under 10 nM, the GI50 (HOP-62 NSCLC) was under 10 nM and the TGI (HOP-62 NSCLC) was 5640 nM. For the same molecule, the GI50 (HT29 colon) was under 10 nM, the TGI (HT29 colon) was 13000 nM and the GI50 (MDA-MB-435 melanoma) was under 10 nM. The TGI (MDA-MB-435 melanoma) was under 10 nM, the GI50 (SW-620 colon) was under 10 nM and the TGI (SW-620 colon) was over 100000 nM. The GI50 (NCI-H522 lung) was under 10 nM, the TGI (NCI-H522 lung) was under 10 nM and the GI50 (SK-MEL-28 melanoma) was under 10 nM. For the same molecule, the TGI (SK-MEL-28 melanoma) was under 10 nM, the GI50 (MALME-3M melanoma) was under 10 nM and the TGI (MALME-3M melanoma) was under 10 nM. It also gave a GI50 (NCI-H23 lung) of under 10 nM, a TGI (NCI-H23 lung) of under 10 nM and a GI50 (SNB-75 CNS) of under 10 nM. It also gave a TGI (SNB-75 CNS) of under 10 nM.
